Laboratory results reported in ChEMBL document CHEMBL5380875, “Discovery of a Potent and Oral Available Complex I OXPHOS Inhibitor That Abrogates Tumor Growth and Circumvents MEKi Resistance” (J Med Chem, 2023).
Active and inactive are the calls of the source. The calls are words filed in the database; no cut-off is given here.

Legend:
NCI-H441 [1] = assay: Potentiation of trametinib-induced cytotoxicity against human NCI-H441 cells with high-OXPHOS harboring KRAS G12V mutant assessed as reduction in cell viability at 10 to 20 uM incubated for 72 hrs by CellTiter 96 cell proliferation assay; format: functional, cell-based; settings: dose 10-20 µM
[2] = Toxicity in mouse xenografted with human NCI-H460 cells with high-OXPHOS assessed as reduction in body weight at 30 mg/kg, po bid administered for 18 days in presence of trametinib; format: organism-based; settings: in vivo, 432 h, time 18 day
NCI-H460 [3] = assay: Induction of apoptosis in human NCI-H460 cells with high-OXPHOS harboring KRAS Q61H mutant assessed as late apoptotic cells at 20 nM incubated for 72 hrs in presence of trametinib by Annexin V-FITC/propidium iodide staining based flow cytometry analysis (reference value: 5.68%); format: functional
[4] = Cmax in ICR mouse at 10 mg/kg, po measured for 24 hrs by LC-MS/MS analysis; format: ADME, organism-based; parameters: time 24 hrs, dose 10 mg/kg, route po; settings: in vivo
[5] = Oral bioavailability in ICR mouse at 10 mg/kg measured for 24 hrs by LC-MS/MS analysis; format: ADME, organism-based; settings: in vivo
[6] = Toxicity in mouse xenografted with human NCI-H460 cells with high-OXPHOS assessed as reduction in body weight at 30 mg/kg, po bid administered for 18 days; format: organism-based; settings: in vivo, 432 h, time 18 day
NCI-H460 [7] = assay: Antitumor activity against human NCI-H460 cells with high-OXPHOS xenografted in mouse assessed as reduction in trametinib-induced oxidative phosphorylation at 30 mg/kg, po bid administered for 18 days; format: functional, organism-based; settings: time 18.0 day
NCI-H460 [8] = assay: Inhibition of mitochondrial complex I NADH-ubiquinone oxidoreductase in human NCI-H460 cells assessed as reduction in NAD+/NADH ratio at 1 uM incubated for 12 hrs by WST-8 method relative to control; format: cell-based
NCI-H441 [9] = assay: Inhibition of mitochondrial respiration in human NCI-H441 cells with high-OXPHOS assessed as reduction in spare oxygen consumption rate capacity incubated for 12 hrs by seahorse XF96 flux analyzer; format: functional, cell-based; settings: dose 50-200 nM
A549 [10] = assay: Induction of apoptosis in human Trametinib-resistant A549 cells with high-OXPHOS harboring KRAS G12S mutant assessed as early apoptotic cells at 20 nM incubated for 72 hrs by Annexin V-FITC/propidium iodide staining based flow cytometry analysis (reference value: 4.31%); format: functional
NCI-H460 [11] = assay: Induction of apoptosis in human NCI-H460 cells with high-OXPHOS assessed as early apoptotic cells at 30 nM incubated for 48 hrs by Annexin V-FITC/propidium iodide staining based flow cytometry analysis (reference value: 3.55%); format: functional
[12] = AUC (0 to 24 hrs) in ICR mouse at 1 mg/kg, iv measured for 24 hrs by LC-MS/MS analysis; format: ADME, organism-based; parameters: time 24 hrs, dose 1 mg/kg, route iv; settings: in vivo
[13] = Half life in ICR mouse at 10 mg/kg, po measured for 24 hrs by LC-MS/MS analysis; format: ADME, organism-based; settings: in vivo
A549 [14] = assay: Inhibition of colony formation in human Trametinib-resistant A549 cells with high-OXPHOS incubated for 7 days by crystal violet staining based analysis; format: functional, cell-based; settings: dose 25-100 nM, time 7.0 day
[15] = AUC (0 to infinity) in ICR mouse at 10 mg/kg, po measured for 24 hrs by LC-MS/MS analysis; format: ADME, organism-based; parameters: dose 10 mg/kg, time 24 hrs, route po; settings: in vivo

In the case of `Cc1c(C(=O)N2CCN(Cc3ccc(OCC(F)(F)F)cc3)CC2)nnn1Cc1ccc(C(=O)Nc2ccc(C(F)(F)F)cc2)nc1`, the Activity (NCI-H441 [1]) is reported as “Active”, the Activity [2] is reported as “Non-Toxic” and the Activity (NCI-H460 [3]) is reported as 34.1%. For the same molecule, the Cmax [4] was 618 ng/mL, the bioavailability [5] was 64.3% and the Activity [6] was “Non-Toxic”. For the same molecule, the Activity (NCI-H460 [7]) was “Active”, the inhibition (NCI-H460 [8]) was 87.5% and the inhibition (NCI-H441 [9]) was “Dose-Dependent Effect”. The Activity (A549 [10]) was 8.57%, the Activity (NCI-H460 [11]) was 7.08% and the AUC(0-t) at 24 h [12] was 337 ng·h/mL. The half-life [13] was 2.5 h, the inhibition (A549 [14]) was “Dose-Dependent Effect” and the AUC(0-inf) [15] was 2300 ng·h/mL.
